From ChEMBL document CHEMBL5244277, “A review upon medicinal perspective and designing rationale of DPP-4 inhibitors” (Bioorg Med Chem, 2021)
Values after ≈ are worked out from the molar mass of the structure shown.

Legend:
[1] = Aqueous stability in phosphate buffer at pH 7.4 assessed as half life; type: physicochemical
[2] = Half life in mouse; type: ADME, organism-based; settings: in vivo
Homo sapiens = organism: Homo sapiens; assay: Selectivity index, ratio of IC50 for DPP-4 (unknown origin) to IC50 for DPP-8 (unknown origin)
Dipeptidyl peptidase 4 [3] = target: T1, Dipeptidyl peptidase 4 (Homo sapiens, UniProt P27487); type: cell-based, Caco-2
Target sequence in this assay (P27487 whole entry): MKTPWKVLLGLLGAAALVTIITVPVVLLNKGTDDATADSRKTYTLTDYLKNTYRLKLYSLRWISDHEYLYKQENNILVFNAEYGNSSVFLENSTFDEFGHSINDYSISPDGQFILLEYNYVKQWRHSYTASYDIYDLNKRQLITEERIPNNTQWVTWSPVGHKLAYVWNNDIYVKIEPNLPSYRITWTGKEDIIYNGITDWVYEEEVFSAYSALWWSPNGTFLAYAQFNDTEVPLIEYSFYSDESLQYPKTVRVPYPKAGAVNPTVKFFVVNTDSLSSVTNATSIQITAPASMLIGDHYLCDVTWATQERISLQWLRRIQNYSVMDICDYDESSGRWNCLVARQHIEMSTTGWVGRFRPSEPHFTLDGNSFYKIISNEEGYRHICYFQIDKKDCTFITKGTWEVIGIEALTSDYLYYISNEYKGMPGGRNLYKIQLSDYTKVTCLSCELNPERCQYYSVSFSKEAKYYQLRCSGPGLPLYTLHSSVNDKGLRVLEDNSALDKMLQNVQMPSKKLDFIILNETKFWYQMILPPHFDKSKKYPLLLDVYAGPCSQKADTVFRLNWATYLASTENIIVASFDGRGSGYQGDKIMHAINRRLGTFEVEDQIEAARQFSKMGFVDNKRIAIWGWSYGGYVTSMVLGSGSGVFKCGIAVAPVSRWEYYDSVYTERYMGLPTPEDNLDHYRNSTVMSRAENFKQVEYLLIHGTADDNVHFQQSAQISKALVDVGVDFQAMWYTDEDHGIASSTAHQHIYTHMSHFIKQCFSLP

Dipeptidyl peptidase 4 [4] = target: T1, Dipeptidyl peptidase 4; assay: Inhibition of DPP4 (unknown origin) using Gly-Pro-AMC as substrate incubated for 30 mins by spectroscopic analysis
Target sequence in this assay (P27487 whole entry): as above

Dipeptidyl peptidase 4 [5] = target: T1, Dipeptidyl peptidase 4; assay: Inhibition of human recombinant DPP-4 at 100 uM using Gly-Pro-Aminomethylcoumarin as substrate by Spectra max fluorometer analysis relative to control
Target sequence in this assay (P27487 whole entry, looked up): as the sequence (P27487 whole entry) above

Dipeptidyl peptidase 4 [6] = target: T1, Dipeptidyl peptidase 4; assay: Inhibition of DPP-4 (unknown origin) at 100 uM relative to control
Target sequence in this assay (P27487 whole entry, looked up): as the sequence (P27487 whole entry) above

Dipeptidyl peptidase 4 [7] = target: T1, Dipeptidyl peptidase 4
Target sequence in this assay (P27487 whole entry): as above

Mus musculus [8] = assay: Antidiabetic activity in ICR mouse assessed as decrease in AUC of glucose at 10 mg/kg, po; type: functional; design: scale not given: the % may be the effect or the level left
Mus musculus [9] = assay: Antidiabetic activity in ICR mouse assessed as decrease in AUC of glucose at 3 mg/kg, po; type: functional; design: scale not given: the % may be the effect or the level left
[10] = Antioxidant activity assessed as DPPH radical scavenging activity; type: functional
[11] = AUC in C57BL/6J mouse at 20 mg/kg, po; type: ADME, organism-based; design: dose 20 mg/kg, route po; settings: in vivo
Mus musculus [12] = assay: Hypoglycemic activity in ICR mouse assessed as reduction in blood glucose level at 3 mg/kg; type: ADME, organism-based; design: scale not given: the % may be the effect or the level left; settings: in vivo
Mus musculus [13] = assay: Hypoglycemic activity in ICR mouse assessed as reduction in blood glucose level at 30 mg/kg; type: ADME, organism-based; design: scale not given: the % may be the effect or the level left; settings: in vivo
[14] = Oral bioavailability in KKAy mouse at 10 to 30 mg/kg; type: ADME, organism-based; settings: in vivo, dose 10-30 mg/kg
[15] = Half life in KKAy mouse at 10 to 30 mg/kg; type: ADME, organism-based; settings: in vivo, dose 10-30 mg/kg
Mus musculus [16] = assay: Hypoglycemic activity in ICR mouse assessed as reduction in blood glucose level at 10 mg/kg; type: ADME, organism-based; design: scale not given: the % may be the effect or the level left; settings: in vivo
Mus musculus [17] = assay: Hypoglycemic activity in ICR mouse assessed as reduction in blood glucose level at 1 mg/kg; type: ADME, organism-based; design: scale not given: the % may be the effect or the level left; settings: in vivo
Mus musculus [18] = assay: Hypoglycemic activity in KKAy mouse assessed as reduction in blood glucose level at 10 mg/kg; type: ADME, organism-based; design: scale not given: the % may be the effect or the level left; settings: in vivo
Mus musculus [19] = assay: Hypoglycemic activity in KKAy mouse assessed as reduction in blood glucose level at 30 mg/kg; type: ADME, organism-based; design: scale not given: the % may be the effect or the level left; settings: in vivo
Rattus norvegicus [20] = assay: Antihyperglycemic activity in STZ-induced diabetic rat model assessed as reduction in blood glucose level at 100 mg/kg, po measured upto 24 hrs; type: functional; design: scale not given: the % may be the effect or the level left
Rattus norvegicus [21] = assay: Anti-hyperglycemic activity in STZ-induced diabetic rat model assessed as improvement in glucose tolerance level at 30 mg/kg, po measured on day 10; type: functional; settings: time 10 day
Rattus norvegicus [22] = assay: Anti-hyperglycemic activity in STZ-induced diabetic rat model assessed as improvement in glucose tolerance level at 30 mg/kg, po measured on day 15; type: functional
Dipeptidyl peptidase 9 = Dipeptidyl peptidase 9 (Homo sapiens, UniProt Q86TI2); assay: Inhibition of DPP-9 (unknown origin)
Dipeptidyl peptidase 8 = Dipeptidyl peptidase 8 (Homo sapiens, UniProt Q6V1X1); assay: Inhibition of DPP-8 (unknown origin)
Mus musculus [23] = assay: Antidiabetic activity in C57BL/6J mouse assessed as decrease in AUC of glucose at 3 mg/kg, po; type: functional; design: scale not given: the % may be the effect or the level left
Dipeptidyl peptidase 4 [24] = target: T1, Dipeptidyl peptidase 4; assay: Inhibition of human recombinant DPP-4 at 25 uM using Gly-Pro-Aminomethylcoumarin as substrate by Spectra max fluorometer analysis relative to control
Target sequence in this assay (P27487 whole entry, looked up): as the sequence (P27487 whole entry) above

Sequence of Dipeptidyl peptidase 9 (Q86TI2 whole entry): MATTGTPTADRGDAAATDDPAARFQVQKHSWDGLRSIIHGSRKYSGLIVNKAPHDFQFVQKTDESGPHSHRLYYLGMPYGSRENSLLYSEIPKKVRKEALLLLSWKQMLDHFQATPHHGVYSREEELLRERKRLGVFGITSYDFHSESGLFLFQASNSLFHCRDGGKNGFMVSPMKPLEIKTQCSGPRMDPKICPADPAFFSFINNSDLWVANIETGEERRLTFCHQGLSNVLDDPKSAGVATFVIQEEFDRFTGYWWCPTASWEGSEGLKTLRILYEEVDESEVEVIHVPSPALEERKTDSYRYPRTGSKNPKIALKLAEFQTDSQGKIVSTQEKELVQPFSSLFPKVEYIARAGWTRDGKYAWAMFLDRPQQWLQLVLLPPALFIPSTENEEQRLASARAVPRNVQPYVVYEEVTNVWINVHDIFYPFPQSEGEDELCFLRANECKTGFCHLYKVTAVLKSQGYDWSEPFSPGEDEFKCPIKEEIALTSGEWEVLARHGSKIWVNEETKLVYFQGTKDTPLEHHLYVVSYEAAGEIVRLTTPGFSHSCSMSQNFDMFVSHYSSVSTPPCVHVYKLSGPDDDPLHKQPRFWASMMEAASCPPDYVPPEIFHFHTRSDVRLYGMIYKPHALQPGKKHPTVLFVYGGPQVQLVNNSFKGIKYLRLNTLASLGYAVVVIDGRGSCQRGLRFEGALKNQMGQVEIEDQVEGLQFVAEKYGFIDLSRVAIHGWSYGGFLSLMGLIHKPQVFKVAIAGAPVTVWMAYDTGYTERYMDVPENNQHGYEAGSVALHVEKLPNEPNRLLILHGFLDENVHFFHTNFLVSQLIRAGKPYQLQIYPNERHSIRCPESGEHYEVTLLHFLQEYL
Sequence of Dipeptidyl peptidase 8 (Q6V1X1 whole entry): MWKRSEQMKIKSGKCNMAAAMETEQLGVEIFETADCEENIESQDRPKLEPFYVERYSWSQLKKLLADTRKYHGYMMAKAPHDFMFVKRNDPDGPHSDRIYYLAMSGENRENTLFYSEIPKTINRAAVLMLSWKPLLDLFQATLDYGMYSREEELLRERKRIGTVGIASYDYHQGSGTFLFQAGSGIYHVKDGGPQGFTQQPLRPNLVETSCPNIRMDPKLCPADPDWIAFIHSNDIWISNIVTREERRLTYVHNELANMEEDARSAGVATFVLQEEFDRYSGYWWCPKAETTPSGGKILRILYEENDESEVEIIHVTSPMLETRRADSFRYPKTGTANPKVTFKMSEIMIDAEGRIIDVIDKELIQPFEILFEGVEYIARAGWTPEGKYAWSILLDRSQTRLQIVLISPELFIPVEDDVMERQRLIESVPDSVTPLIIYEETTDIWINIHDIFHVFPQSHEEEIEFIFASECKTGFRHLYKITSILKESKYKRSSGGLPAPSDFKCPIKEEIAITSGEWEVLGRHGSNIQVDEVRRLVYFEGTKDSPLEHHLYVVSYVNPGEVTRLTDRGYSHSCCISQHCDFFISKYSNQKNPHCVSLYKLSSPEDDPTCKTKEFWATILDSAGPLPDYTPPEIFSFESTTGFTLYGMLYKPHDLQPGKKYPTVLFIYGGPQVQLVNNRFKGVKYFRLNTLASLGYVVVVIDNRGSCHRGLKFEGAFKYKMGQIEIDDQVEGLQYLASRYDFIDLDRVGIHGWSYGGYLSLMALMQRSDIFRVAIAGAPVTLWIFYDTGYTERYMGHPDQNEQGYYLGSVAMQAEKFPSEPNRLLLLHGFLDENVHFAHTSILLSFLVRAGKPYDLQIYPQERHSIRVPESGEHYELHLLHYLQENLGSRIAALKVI

Compound `CO[C@@H]1CCCN1C(=O)CC(C)(C)[C@H](N)C(=O)N1CCC[C@H]1C#N.O=C(O)C(F)(F)F` has a half-life [1] of 168 h.

Compound `N#C[C@@H]1CCCN1C(=O)[C@@H](N)CCC(=O)N1CCn2cc(C(F)(F)F)nc2C1.O=C(O)C(F)(F)F` has a half-life [2] of less than 24 h and a Ratio IC50 (Homo sapiens) greater than 1000.

Compound `CCN(CC)S(=O)(=O)c1cccc(C(=O)NC[C@@H]2CCCN2C(=O)C[C@H](N)[C@H]2CCc3cc(F)c(F)cc32)c1` has an IC50 (Dipeptidyl peptidase 4 [3]) of 0.00087 µM.

Compound `O=C([C@H]1CC[C@@H](n2cc(-c3ccc(-c4ccccc4)cc3)nn2)C1)N1CCC(F)(F)C1` has an IC50 (Dipeptidyl peptidase 4 [4]) of 0.66 µM.

With `Cc1ccc(NC(=O)CNc2cc3ccc4ccccc4c3oc2=O)cc1` the inhibition (Dipeptidyl peptidase 4 [5]) was 26.7%.

In the case of `CCOC(=O)c1ccc2cc(OCC(=O)N3CCCCC3)c(=O)oc2c1`, the inhibition (Dipeptidyl peptidase 4 [5]) is reported as 1.3%.

For `COc1ccc(CCNC(=S)N/C=C2\C(=O)Oc3ccccc3C2=O)cc1OC`, the inhibition (Dipeptidyl peptidase 4 [6]) was greater than 50%.

In the case of `N#C[C@@H]1CCCN1C(=O)[C@@H](N)CCC(=O)N1CCn2nc(C(F)(F)F)nc2C1.O=C(O)C(F)(F)F`, the half-life [2] is reported as less than 24 h and the Ratio IC50 (Homo sapiens) is reported as greater than 1000.

In the case of `CCN(CC)S(=O)(=O)c1cc(C(=O)NC[C@@H]2CCCN2C(=O)C[C@H](N)[C@H]2CCc3cc(F)c(F)cc32)c(F)cc1F`, the IC50 (Dipeptidyl peptidase 4 [3]) is reported as 0.00087 µM.

Compound `COC(=O)c1cn([C@@H]2CC[C@H](C(=O)N3CCC(F)(F)C3)C2)nn1` has an IC50 (Dipeptidyl peptidase 4 [4]) of 0.72 µM.

Compound `O=C([C@H]1CC[C@@H](n2cc(-c3ccccc3O)nn2)C1)N1CCC(F)(F)C1` has an IC50 (Dipeptidyl peptidase 4 [4]) of 0.62 µM.

Work on `N[C@@H](CC(=O)N1CCC[C@H]1CNC(=O)c1cc(S(=O)(=O)N2CCC2)c(F)cc1F)[C@H]1CCc2cc(F)c(F)cc21` yielded an IC50 (Dipeptidyl peptidase 4 [3]) of 0.00087 µM.

`CC#CCn1c(N2CCC[C@@H](N)C2)cc(=O)n(Cc2cn(CCC(=O)OC)nn2)c1=O` showed an IC50 (Dipeptidyl peptidase 4 [7]) of 0.064 µM, an Activity (Mus musculus [8]) of 40.4% and an Activity (Mus musculus [9]) of 31.4%.

`N[C@@H](CC(=O)N1CCC[C@H]1CNC(=O)c1cccnc1)[C@H]1CCc2cc(F)c(F)cc21` showed an IC50 (Dipeptidyl peptidase 4 [3]) of 0.00087 µM.

For `O=[N+]([O-])c1cccc(/C=N/N2C(c3ccccc3)=Nc3ccc(I)cc3C2Nc2nccs2)c1` (stereo not drawn), the IC50 [10] was 51.23 µg/mL (≈ 88.3 µM).

For `N#Cc1ccc(C2=NNc3nc(Br)nn3C2)cc1`, the inhibition (Dipeptidyl peptidase 4 [6]) was 48.3%.

With `O=C1O[C@H]([C@@H](O)CO)C(O)=C1O` [ASCORBIC ACID] the IC50 [10] was 34.69 µg/mL (≈ 197 µM).

In the case of `N#Cc1ccc(C(=O)NCCCC(=O)N2CCC[C@H]2C#N)cc1`, the AUC [11] is reported as 54000 ng·h/mL.

For `Cn1c(=O)cc(N2CCC[C@@H](N)C2)n(Cc2ccccc2C#N)c1=O` [ALOGLIPTIN], the Activity (Mus musculus [8]) was 42.5%.

In the case of `CC#CCn1c(N2CCC[C@@H](N)C2)cc(=O)n(Cc2cn(-c3ccccc3)nn2)c1=O`, the IC50 (Dipeptidyl peptidase 4 [7]) is reported as 0.185 µM.

For `CC#CCn1c(N2CCC[C@@H](N)C2)cc(=O)n(Cc2cn(C/C=C/C(=O)O)nn2)c1=O`, the IC50 (Dipeptidyl peptidase 4 [7]) was 0.00956 µM and the Activity (Mus musculus [9]) was 28.1%.

In the case of `N#C[C@@H]1C[C@H](F)CN1C(=O)[C@@H](N)Cc1ccccc1`, the Activity (Mus musculus [12]) is reported as 27.36%, the Activity (Mus musculus [13]) is reported as 27.57% and the bioavailability [14] is reported as 21.8%. The half-life [15] was 5.4 h, the Activity (Mus musculus [16]) was 29.13% and the Activity (Mus musculus [17]) was 18.75%. The Activity (Mus musculus [18]) was 19.2% and the Activity (Mus musculus [19]) was 26.4%.

For `CCN(CC)S(=O)(=O)c1cc(C(=O)NC[C@@H]2CCCN2C(=O)C[C@H](N)[C@H]2CCc3cc(F)c(F)cc32)ccc1F`, the IC50 (Dipeptidyl peptidase 4 [3]) was 0.00087 µM.

`CCOC(=O)c1ccc2cc(OCC(=O)N3CCOCC3)c(=O)oc2c1` showed an inhibition (Dipeptidyl peptidase 4 [5]) of 1.3%.

Compound `O=C(CN1CCN(c2ccnc3cc(Cl)ccc23)CC1)N1CCCC1` has an Activity (Rattus norvegicus [20]) of 25.5%, an Activity (Rattus norvegicus [21]) of 14.6% and an Activity (Rattus norvegicus [22]) of 26.4%.

In the case of `Cc1nc2cc(-c3ccccc3)nn2c(-c2ccc(Cl)cc2Cl)c1CO`, the Ki (Dipeptidyl peptidase 9) is reported as greater than 30 µM and the Ki (Dipeptidyl peptidase 8) is reported as greater than 30 µM.

`NCC1CN(CCCc2ccc3c(c2)OCO3)C(=O)CC1c1cc(F)ccc1F` (stereo not drawn) gave an Activity (Mus musculus [23]) of 38.9%.

`Cc1cc(=O)oc2cc(NC(=O)CN3CCNCC3)ccc12` showed an inhibition (Dipeptidyl peptidase 4 [24]) of 52.9%.
